Data published in patent publication US9073858B2, “Methods of targeted drug development” (priority 2010, dated 2015).
Where two headings read alike, the source gives them in different places.

What was measured:
[1] = test system: MDBK line; assay: MTT Cell Proliferation Assay, MDBK line; format: cell-based, bovine
From the text: (§1) The following example describes the MTT Cell Proliferation Assay.
(§2) The MTT Cell Proliferation Assay is a colorimetric assay system that measures the reduction of the tetrazolium salt MTT (3-(4,5-dimethylthiazol-2-yl)-2,5-diphenyltetrazolium bromide) into insoluble formazan crystals, produced by the mitochondria of viable cells. […] The color can then be quantified by spectrophotometric means. Among the applications for the method are drug sensitivity, cytotoxicity, response to growth factors, and cell activation. The reduction of tetrazolium salts is now recognized as a safe, accurate alternative to radiometric testing.
(§3) Two replicates on each cell plate and 2 duplicate plates gave 4 individual replicates of each concentration, in each cell line. Concentrations were diluted in 100% DMSO from 25 mM stocks.
(§4) Twelve 96 well plates of each cell line were plated. Plating was done by dislodging cells as in passage protocol, counting on a hemocytometer, re-suspending in standard growth media, and plating using a multichannel pippetor.
(§5) 16 μl of 25 mM stock+34 μl DMSO=8 mM starting concentrations, and serial diluted as with test compounds in same plate. […] Two replicates of each concentrations was run on each cell plate. All compound addition and cell treatments were done using aseptic technique under a laminar flow aseptic hood.
(§6) Control: 0.5% DMSO in treatment media was used as the control.
(§7) MTT dye (Thiazolyl Blue Tetrazolium Bromide, Sigma cat # M5655) stock was prepared in bulk and stored at 4° C. for use: 5 mgs/ml sterile PDS, shielded from light. 4 ul of this stock per 100 uls treatment media per well was used.
(§8) Plates were incubated overnight prior to treatment, with treatment day=Day 0. Compound treatments were prepared prior to washing cells to minimize time cells were dry at room temperature after final aspiration. Compounds were diluted in 100% DMSO in 96 well polypropylene plates:40 μl 25 mM stock+10 μl DMSO=20 mM; 20 μl of 20 mM+30 μl DMSO=8 mM; 20 μl of 8 mM+30 μl DMSO=3.2 mM; 20 μl of 3.2 mM+30 μl DMSO=1.3 mM; 20 μl of 1.3 mM+30 μl DMSO=0.51 mM.
(§9) 5.0 μl/ml were added to treatment media, in sterile, 2.2 ml deep well plates=0.5% dmso final. Ten μl of each dmso concentration was added to 2.0 ml of treatment media and then mixed using a 1200 μl multichannel pipettor. Cell plates were treated from the deep well plates. Treatment media was standard growth media containing 0.5% FBS and standard additions. This reduced FBS concentration allowed for a slower growth rate in cells.
(§10) Media was aspirated from cell plates, and washed with 200 μl/well sterile PBS. Aspirated PBS wash, and cell plates were treated with 200 μl of compound/treatment media per well, and incubated at 37° C., 5% CO2 for 3 days.
(§11) Prior to harvesting, visual observations were made under an inverted microscope. Plates were harvested by: aspirating the growth media; adding back MTT dye/100 μl treatment media; and incubating plates at 37° C. for 1 hour. MTT dye was aspirated. 100 μl/well dmso was added, and then shaken on a Bellco plate shaker for 5 minutes, at 4.5 setting.
(§12) Plates were read in a Tecan Sunrize UV plate reader, at 560 nm. Settings: Read mode, Outside Normal 2 sec; Shake settle time 3 sec. Data is reported as % inhibition, calculated for individual plates using control values from that plate.

[2] = molecular target: T1, EGFR (Homo sapiens, UniProt P00533); assay: EGFR in-cell Western (ICW) screening protocol; format: cell-based; parameters: unit not given here; conditions: for ICW Screen: initial screen
T1 construct: endogenous in cells; host or cells: A431 cells (ATCC CRL-1555)
T1 sequence (P00533 25-1210): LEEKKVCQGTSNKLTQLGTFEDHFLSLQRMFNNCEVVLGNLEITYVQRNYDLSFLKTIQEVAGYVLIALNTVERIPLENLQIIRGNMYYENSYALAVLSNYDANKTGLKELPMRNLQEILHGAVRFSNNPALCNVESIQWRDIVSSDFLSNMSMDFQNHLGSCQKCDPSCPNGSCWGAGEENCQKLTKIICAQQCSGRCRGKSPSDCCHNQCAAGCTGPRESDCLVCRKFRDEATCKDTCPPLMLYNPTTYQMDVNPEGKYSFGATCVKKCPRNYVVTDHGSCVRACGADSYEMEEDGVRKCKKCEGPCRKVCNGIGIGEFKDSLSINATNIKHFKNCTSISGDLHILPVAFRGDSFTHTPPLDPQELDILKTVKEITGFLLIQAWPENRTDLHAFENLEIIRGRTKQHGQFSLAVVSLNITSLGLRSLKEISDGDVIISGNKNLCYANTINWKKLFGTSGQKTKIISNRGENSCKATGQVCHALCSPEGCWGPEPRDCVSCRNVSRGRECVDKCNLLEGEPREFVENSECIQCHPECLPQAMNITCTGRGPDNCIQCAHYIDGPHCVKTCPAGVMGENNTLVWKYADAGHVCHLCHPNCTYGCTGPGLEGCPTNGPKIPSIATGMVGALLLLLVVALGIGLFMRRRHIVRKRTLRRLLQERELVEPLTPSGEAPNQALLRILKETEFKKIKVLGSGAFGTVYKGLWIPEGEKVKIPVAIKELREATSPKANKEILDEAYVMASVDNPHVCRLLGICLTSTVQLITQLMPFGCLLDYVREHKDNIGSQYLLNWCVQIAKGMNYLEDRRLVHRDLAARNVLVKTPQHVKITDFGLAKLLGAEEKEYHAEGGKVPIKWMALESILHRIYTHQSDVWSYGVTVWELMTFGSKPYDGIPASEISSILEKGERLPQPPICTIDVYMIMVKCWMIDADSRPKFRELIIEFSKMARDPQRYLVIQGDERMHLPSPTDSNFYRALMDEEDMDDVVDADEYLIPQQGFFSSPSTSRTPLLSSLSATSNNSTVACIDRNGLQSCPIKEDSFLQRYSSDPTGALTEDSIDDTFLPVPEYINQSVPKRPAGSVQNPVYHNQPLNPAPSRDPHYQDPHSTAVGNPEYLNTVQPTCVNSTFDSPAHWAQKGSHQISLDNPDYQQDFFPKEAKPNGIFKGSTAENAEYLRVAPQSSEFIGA
Method: The following example describes general EGFR in-cell Western (ICW) screening protocol.
Two cell plates were prepared for each compound plate.
Serum Starvation: The cells were serum starved prior to compound addition. […] The cell plates were incubated at 37° C./5% CO2 for 2 hours.
Prepared compound plates were stored at RT prior to use and at 4° C. long term.
Compound Dilution Plate Preparation: 250 μl of DMEM supplemented with 1 mg/ml BSA (Sigma A3059-10G) was added to the appropriate wells of a 96 well plate to prepare the compound dilution plates. Using a multichannel pipettor, 1.25 μl of compound from the compound plate was transferred into the compound dilution plate.
Compound Addition: The starve media was removed from the cell plates by aspiration. Using a multichannel pipettor, the compound dilution plates were mixed by pipetting up and down three times. 50 μl of mixed, diluted compound was added to each of two rows/columns on each of two cell plates. The cell plates with compound were incubated at 37° C./5% CO2 for 4 hours.
50 μl of 20 or 0 ng/ml EGF was added to the appropriate wells without the removal of compound. The compound and EGF were mixed by pipetting up and down three times.
The plates were incubated at RT for 20 min without shaking. The Fixation Solution was removed by aspiration and the plates washed four times with 200 μl each of Triton Wash Solution (1×PBS, Sigma P3813-10PK, and 0.1% Triton X-100, T8787-50ML) for 5 min with gentle shaking.
The block was removed by aspiration and 50 μl of diluted primary Ab mix was added. The plates were incubated at 4° C. overnight with gentle shaking. The plates were washed five times with 200 μl of PBST (1×PBS, Sigma P3813-10PK, and 0.1% Tween-20, Sigma P9416-50ML) for 5 min each with shaking. 50 μl of diluted secondary Ab mix was added and the plates incubated at RT for 1 h with shaking. The plates were washed 5× with 200 μl of PBST for 5 min each with shaking. One final wash with 200 μl of PBS (Sigma P3813-10PK) for 5 min with shaking was performed prior to scanning.
In some screening assays, the dilution of the secondary Ab conjugates was 1/800 rather than 1/1200.
Plate Scanning: The plates were scanned on an Odyssey Infrared Imaging System from LI-COR Biosciences. The focus offset was set at 3.5 mm and the scanning intensity set at 3 for the 700 channel and 7 for the 800 channel.
Data Analysis: The % of Maximum and % Inhibition values were calculated as follows. 700 Channel=signal for total EGFR (used to control for variation in cell number). 800 Channel=signal for phosphorylated EGFR. 800−EGF=basal level EGFR phosporylation+non-specific signal (no compound). 800+EGF=800−EGF+EGF dependent EGFR receptor phosphorylation (no compound). 700/800com=700 or 800 channel signals with compound. % Maximum={[(800com/700com)−(800−EGF/700−EGF)]/[(800+EGF/700+EGF)−(800−EGF/700−EGF)]}×100%. % Inhibition=100%−(% Maximum).

[3] = test system: epithelial carcinoma A431 cell line; assay: MTT Cell Proliferation Assay, A431 cell line; format: cell-based; conditions: for MTT-72 h A431/MDBK (ratio) / MTT (10 Point follow-up) ratio: value in brackets; for MTT-72 h A431/MDBK (ratio): numerically MDBK value over A431 value; for MTT (10 Point follow-up) ratio: numerically MDBK over A431
From the text: as §1, §2, §3, §4, §5, §6, §7, §8, §9, §10, §11, §12

[4] = Bos taurus, MDBK, 72 h, second value of A431/MDBK pair, read-out: MTT-72 h MDBK
[5] = Homo sapiens, A-431, 72 h, 72 h, first value of A431/MDBK pair, read-out: MTT-72 h A431
[6] = Bos taurus, MDBK, 10 point follow-up, second value of pair, read-out: MTT (10 Point follow-up) MDBK
[7] = Homo sapiens, A-431, 10 point follow-up, first value of pair, read-out: MTT (10 Point follow-up) A431

| ICW Screen [2] | IC50 [3, 5] | ICW Re-Test [2] | IC50 [3, 7] | IC50 ([3]; 10 point follow-up, first value of pair, read-out: MTT (10 Point follow-up) A431) | IC50 ([3]; 72 h, first value of A431/MDBK pair, read-out: MTT-72 h A431) | Compound | IC50 [1, 4] | MTT-72 h A431/MDBK (ratio) ([3]; 72 h) | IC50 [1, 6] | MTT (10 Point follow-up) ratio ([3]; 10 point follow-up) | IC50 ([1]; 10 point follow-up, second value of pair, read-out: MTT (10 Point follow-up) MDBK) | IC50 ([1]; 72 h, second value of A431/MDBK pair, read-out: MTT-72 h MDBK) |
| --- | --- | --- | --- | --- | --- | --- | --- | --- | --- | --- | --- | --- |
| 34.62 | 9.39 µM |  |  |  |  | COc1ccc(C(Nc2cc(C)ccn2)c2ccc3cccnc3c2O)c(OC)c1OC (stereo not shown) [compound 10031] | 6.09 µM | 0.65 |  |  |  |  |
| 49.36 | 1.85 µM | 5.98 | 1.81 µM |  |  | Oc1c(C(Nc2ccccn2)c2ccccc2F)ccc2cccnc12 (stereo not shown) [compound 10033] | 4.62 µM | 2.49 | 4.43 µM | 2.44 |  |  |
| 27.1 | 12 µM |  |  |  |  | Cc1ccc2ccc(C(Nc3ccccn3)c3ccc(C)c(C)c3)c(O)c2n1 (stereo not shown) [compound 10034] | 7.16 µM | 0.60 |  |  |  |  |
| 32.12 | 43 µM |  |  |  |  | Cc1cccc(NC(c2ccc(O)cc2)c2ccc3ccc(C)nc3c2O)n1 (stereo not shown) [compound 10037] | 18.2 µM | 0.42 |  |  |  |  |
| 28.31 | 5.75 µM |  |  |  |  | Cc1ccnc(NC(c2ccc3c(c2)OCO3)c2ccc3cccnc3c2O)c1 (stereo not shown) [compound 10038] | 5.42 µM | 0.94 |  |  |  |  |
| 45.08 | 2.95 µM | 3.45 | 1.59 µM |  |  | CCc1ccc(C(Nc2ccccn2)c2ccc3cccnc3c2O)cc1 (stereo not shown) [compound 10041] | 2.94 µM | 1.00 | 2.34 µM | 1.47 |  |  |
| 47.99 | 1.49 µM | −8.06 | 9.62 µM |  |  | O=[N+]([O-])c1ccccc1C(Nc1ccccn1)c1ccc2cccnc2c1O (stereo not shown) [compound 10042] | 1.49 µM | 1.00 | 6.63 µM | 0.69 |  |  |
| 34.63 |  |  | 5.46 µM |  |  | Cc1cccc(NC(c2cccc(Cl)c2)c2ccc3cccnc3c2O)n1 (stereo not shown) [compound 10043] |  |  | 5.29 µM | 0.97 |  |  |
| 27.22 | 13.5 µM |  |  |  |  | Cc1ccc2ccc(C(Nc3ccccn3)c3ccc(F)cc3)c(O)c2n1 (stereo not shown) [compound 10045] | 9.85 µM | 0.73 |  |  |  |  |
| 12.78 |  |  |  | 1.66 µM |  | Oc1c(C(Nc2ccccn2)c2ccc(Cl)cc2Cl)ccc2cccnc12 (stereo not shown) [compound 10046] |  |  |  | 1.87 | 3.1 µM |  |
| 44.94 |  | 15.3 | 5.46 µM |  |  | Oc1c(C(Nc2ccccn2)c2ccc(Br)cc2)ccc2cccnc12 (stereo not shown) [compound 10048] |  |  | 5.23 µM | 0.96 |  |  |
| 35.57 | 12.2 µM |  |  |  |  | CCOc1ccccc1C(Nc1ccccn1)c1ccc2ccc(C)nc2c1O (stereo not shown) [compound 10049] | 11.5 µM | 0.94 |  |  |  |  |
| 32.11 | 5.39 µM |  |  |  |  | C=CCOc1cccc(C(Nc2ccccn2)c2ccc3cccnc3c2O)c1 (stereo not shown) [compound 10050] | 5.35 µM | 0.97 |  |  |  |  |
| 36.47 | 0.79 µM |  | 0.545 µM |  |  | Oc1c(C(Nc2ccccn2)c2cccc(Cl)c2Cl)ccc2cccnc12 (stereo not shown) [compound 10051] | 1.42 µM | 1.80 | 0.974 µM | 1.79 |  |  |
| 43.1 | 2.35 µM | 20.95 | 13.8 µM |  |  | C=CCOc1ccc(C(Nc2ccccn2)c2ccc3cccnc3c2O)cc1 (stereo not shown) [compound 10052] |  |  | 9.25 µM | 0.67 |  |  |
| 32.85 |  |  | 3.98 µM |  |  | Cc1ccnc(NC(c2cccc(OCc3ccccc3)c2)c2ccc3cccnc3c2O)c1 (stereo not shown) [compound 10053] |  |  | 0.44 µM | 0.11 |  |  |
| 35.84 | 5.47 µM |  |  |  |  | Cc1ccc(C(Nc2cccc(C)n2)c2ccc3cccnc3c2O)cc1 (stereo not shown) [compound 10054] | 5.46 µM | 1.00 |  |  |  |  |
| 28.09 |  |  |  |  | 12.1 µM | Cc1cccc(NC(c2ccc3c(c2)OCO3)c2ccc3cccnc3c2O)n1 (stereo not shown) [compound 10055] |  | 0.68 |  |  |  | 8.17 µM |
| 34.16 | 5.38 µM | 44.46 |  |  |  | Cc1cccc(NC(c2ccc(F)cc2)c2ccc3cccnc3c2O)n1 (stereo not shown) [compound 10056] | 5.18 µM | 0.96 |  |  |  |  |
| 28.52 | 5.14 µM |  | 1.08 µM |  |  | Cc1cccc(NC(c2ccc(Cl)cc2)c2ccc3cccnc3c2O)n1 (stereo not shown) [compound 10058] | 5.83 µM | 1.13 | 1.68 µM | 1.56 |  |  |
| 9.336 |  |  | 1.56 µM |  |  | Oc1ccc(Br)c(C(Nc2ccccn2)c2ccc3cccnc3c2O)c1 (stereo not shown) [compound 10064] |  |  | 2.01 µM | 1.29 |  |  |
